{"source": "patent US10919896B2", "about": "“Preparation and uses of pyrimidinone derivatives” (Cancer Research Technology Limited, priority 2016, dated 2021)"}
{"biological_target": "Cdc7/ASK (Homo sapiens, UniProt O00311)", "sequence (O00311 whole entry)": "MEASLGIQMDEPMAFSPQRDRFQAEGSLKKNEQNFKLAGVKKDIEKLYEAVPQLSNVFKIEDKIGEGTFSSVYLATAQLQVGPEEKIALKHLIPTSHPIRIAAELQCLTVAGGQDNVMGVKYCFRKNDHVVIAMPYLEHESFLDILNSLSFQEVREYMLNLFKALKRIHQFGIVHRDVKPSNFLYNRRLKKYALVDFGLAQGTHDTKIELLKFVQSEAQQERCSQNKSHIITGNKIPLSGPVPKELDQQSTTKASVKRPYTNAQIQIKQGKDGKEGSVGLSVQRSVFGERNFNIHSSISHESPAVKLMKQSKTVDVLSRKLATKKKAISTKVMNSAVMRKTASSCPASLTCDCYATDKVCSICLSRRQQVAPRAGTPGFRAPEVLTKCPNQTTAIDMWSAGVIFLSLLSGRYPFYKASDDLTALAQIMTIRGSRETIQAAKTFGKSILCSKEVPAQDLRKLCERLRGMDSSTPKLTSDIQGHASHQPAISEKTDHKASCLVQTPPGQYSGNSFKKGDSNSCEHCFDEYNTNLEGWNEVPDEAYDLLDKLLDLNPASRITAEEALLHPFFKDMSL", "sequence (Q9UBU7 whole entry partner)": "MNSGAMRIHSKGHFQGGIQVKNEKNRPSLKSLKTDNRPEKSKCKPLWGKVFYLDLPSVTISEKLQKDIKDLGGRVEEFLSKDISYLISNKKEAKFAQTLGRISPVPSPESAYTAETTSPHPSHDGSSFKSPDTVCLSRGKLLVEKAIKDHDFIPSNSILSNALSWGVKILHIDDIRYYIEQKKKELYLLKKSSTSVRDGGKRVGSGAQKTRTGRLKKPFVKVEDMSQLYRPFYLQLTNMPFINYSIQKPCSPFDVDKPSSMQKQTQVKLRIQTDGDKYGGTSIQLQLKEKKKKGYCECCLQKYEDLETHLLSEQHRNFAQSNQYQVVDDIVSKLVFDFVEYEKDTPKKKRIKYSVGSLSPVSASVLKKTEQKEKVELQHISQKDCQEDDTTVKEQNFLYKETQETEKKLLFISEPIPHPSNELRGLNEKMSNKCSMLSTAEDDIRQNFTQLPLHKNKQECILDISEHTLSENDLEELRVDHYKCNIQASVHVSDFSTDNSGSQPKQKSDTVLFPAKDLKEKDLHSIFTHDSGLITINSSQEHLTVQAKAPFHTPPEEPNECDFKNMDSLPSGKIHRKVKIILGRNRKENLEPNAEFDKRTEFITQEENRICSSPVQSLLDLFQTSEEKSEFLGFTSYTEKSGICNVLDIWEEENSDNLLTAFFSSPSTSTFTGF", "assay": "Cdc7 Biochemical Assay Method 1: 384 well ELISA, whole protein substrate MCM2, antibody against Phospho MCM2 (S53)", "parameters": "purchased", "details": "2 μM ATP, read-out: Biochemical Method 1 (pIC50) (converted)", "description": "This protocol describes a method for assaying Cdc7/ASK for activity. The assay is a 384 well ELISA assay, utilising a whole protein substrate (MCM2) and an antibody against Phospho MCM2 (S53). This site is thought to be specific to Cdc7/ASK phosphorylation and the assay has been validated using knockout mutants. Reagents • TBS: 25 mM Tris pH 7.2, 150 mM NaCl. (Dilute 10× stock by 1:10). • Wash Buffer: TBS+0.05% Tween 20. (Add 100 mL 1 M Tris pH 7.2, 120 mL 5 M NaCl and 2 mL 100% Tween 20 per 4 L). • Kinase Reaction Buffer: 50 mM Tris-HCl pH 8.5, 10 mM MgCl2, 1 mM DTT. (Dilute 10× stock by 1:10 and add 100 μL 1M DTT per 100 mL prior to assay). • Diethanolamine Buffer: 1 M diethanolamine pH 9.8, 0.5 mM MgCl2. • Stop Solution: 1 M NaOH. • MCM2 was expressed and purified in-house and used in the assay at a final assay concentration of 436 ng/well. • Cdc7/ASK is purchased from commercial suppliers and used in the assay at a final assay concentration of 37.97 ng/well or 20.63 nM. • ATP used as a final assay concentration of 2 μM. • Primary Antibody: Rabbit anti-Phospho MCM2 (S53 Antibody (BL3353)), is purchased from commercial suppliers at 0.2 mg/mL and used at a final assay concentration by diluting 1:800 in TBS. • Secondary Antibody: Anti-Rabbit/AP Antibody is supplied is purchased from commercial suppliers at 1 mg/mL and used at a final assay concentration by diluting 1:2000 in TBS. • Development Reagent: Dissolve one 20 mg PNPP tablet (Sigma, product […], 20 mg per tablet) per 20 mL diethanolamine Buffer (or one 5 mg PNPP tablet per 5 mL diethanolamine buffer). Cover in foil and leave shaking on a roller shaker at room temperature for up to an hour to dissolve. Methods • 1. Add 20 μL 1× working stock of Substrate (MCM2) in TBS to all wells of a clear, 384 well, Nickel-chelate microplate to give a final concentration of […]. Incubate at room temperature for at least 1 hour. Plates can be pre-coated for 1 hour and stored at 4° C. for up to 8 days. • 2. Wash with TBS+0.05% Tween 20 (80 μL×3). • 3. Add 2 μL 10× test compounds, including the positive control, in 40% DMSO/water to 'test' wells. Add 2 μL 40% DMSO/water to 'control' and 'blank' wells. The final DMSO concentration will be 4%. • 4. Add 13 μL CDC7/ASK Kinase (1.5× stock) in Kinase Reaction Buffer to 'test' and 'control' wells to give a final concentration of […]. Add 13 μL Kinase Reaction Buffer to 'blank' wells. • 5. Add 5 μL ATP (4× stock) in Kinase Reaction Buffer to all wells to give a final concentration of 2 μM. • 6. Incubate at room temperature for 90 minutes. • 7. Wash with TBS+0.05% Tween 20 (80 μL×3). • 8. Add 20 μL 1× working solution of Primary Antibody in TBS to all wells. Incubate at room temperature for 30 minutes. • 9. Wash with TBS+0.05% Tween 20 (80 μL×3). • 10. Add 20 μL 1× working solution of Secondary Antibody in TBS to all wells. Incubate at room temperature for 30 minutes. • 11. Wash with TBS+0.05% Tween 20 (80 μL×3). • 12. Add 20 μL 1× Development Reagent to all wells. • 13. Incubate at room temperature for 2 hours. Stop the reaction by adding 20 μL Stop Solution to all wells and record Absorbance on a Pherastar plate reader. Percentage inhibition values were calculated from absorbance values, using the no compound (DMSO) and no enzyme control values as 0% and 100% inhibition, respectively. IC50 determination was performed with ExcelFit software (IDBS) using curve fit 205. Z' factors were determined for each plate tested and were all above 0.5. Method 2", "units": {"IC50": "nM"}}
{"smiles": "O=C(Cc1c[nH]cn1)N1CCC(c2nc(-c3ccncc3)[nH]c(=O)c2Cl)CC1", "note": "[Compound 53]", "IC50": 5.75}
{"smiles": "CC(=O)Nc1ccc(C(=O)N2CCC(c3nc(-c4ccncc4)[nH]c(=O)c3Cl)CC2)cc1", "note": "[Compound 62]", "IC50": 12}
{"smiles": "Cc1cc(C(=O)N2CCC(c3nc(-c4ccncc4)[nH]c(=O)c3Cl)CC2)nn1C", "note": "[Compound 58]", "IC50": 0.912}
{"smiles": "Cc1cc(C(=O)N2CCC(c3nc(-c4ccncc4)[nH]c(=O)c3Cl)CC2)[nH]n1", "note": "[Compound 52]", "IC50": 2.63}
{"smiles": "CC(C)(C)OC(=O)N1CCC(F)(c2nc(-c3ccncc3)[nH]c(=O)c2Cl)CC1", "note": "[Compound 22]", "IC50": 74.1}
{"smiles": "O=C(c1ccccc1Cl)N1CCC(c2nc(-c3ccncc3)[nH]c(=O)c2Cl)CC1", "note": "[Compound 66]", "IC50": 14.8}
{"smiles": "C[C@H](NC(=O)OC(C)(C)C)C(=O)N1CCC(c2nc(-c3ccncc3)[nH]c(=O)c2Cl)CC1", "note": "[Compound 71]", "IC50": 14.5}
{"smiles": "NC(=O)C1CCN(c2nc(-c3ccncc3)[nH]c(=O)c2Cl)CC1", "note": "[Compound 100]", "IC50": 12}
{"smiles": "CC(C)(C)OC(=O)N1CCN(c2nc(-c3ccncc3)[nH]c(=O)c2Cl)CC1", "note": "[Compound 32]", "IC50": 100}
{"smiles": "CC(C)(C)OC(=O)NCC(=O)N1CCC(c2nc(-c3ccncc3)[nH]c(=O)c2Cl)CC1", "note": "[Compound 35, tert-butyl-N-[2-[4-[5-chloro-6-oxo-2-(4-pyridyl)-1H-pyrimidin-4-yl]-1-piperidyl]-2-oxo-ethyl]carbamate]", "IC50": 22.9}
{"smiles": "O=C(c1csnn1)N1CCC(c2nc(-c3ccncc3)[nH]c(=O)c2Cl)CC1", "note": "[Compound 59]", "IC50": 2.57}
{"smiles": "O=C(c1ccccc1)N1CCC(c2nc(-c3ccncc3)[nH]c(=O)c2Cl)CC1", "note": "[Compound 41]", "IC50": 6.92}
{"smiles": "O=c1[nH]c(-c2ccnc(O)c2)nc(C2CCOCC2)c1Cl", "note": "[Compound 402, 5-chloro-2-(2-hydroxy-4-pyridyl)-4-tetrahydropyran-4-yl-1H-pyrimidin-6-one]", "IC50": 112}
{"smiles": "CC1CN(c2nc(-c3ccncc3)[nH]c(=O)c2Cl)CC(C)O1", "note": "(centres unmarked) [Compound 92]", "IC50": 83.2}
{"smiles": "O=c1[nH]c(-c2ccncc2)nc(N2CCCC2)c1Cl", "note": "[Compound 30]", "IC50": 132}
{"smiles": "CC(C)Oc1ccc(C(=O)N2CCC(c3nc(-c4ccncc4)[nH]c(=O)c3Cl)CC2)cc1", "note": "[Compound 63]", "IC50": 3.24}
{"smiles": "O=c1[nH]c(-c2ccncc2)nc(N2CCN(Cc3cccc(Cl)c3)CC2)c1Cl", "note": "[Compound 80]", "IC50": 123}
{"smiles": "CC(C)(C)N1CCCN(c2nc(-c3ccncc3)[nH]c(=O)c2Cl)CC1", "note": "[Compound 137]", "IC50": 589}
{"smiles": "O=C(C1CC1(F)F)N1CCC(c2nc(-c3ccncc3)[nH]c(=O)c2Cl)CC1", "note": "(centres unmarked) [Compound 70]", "IC50": 15.8}
{"smiles": "CC(C)C1CC(c2nc(-c3ccncc3)[nH]c(=O)c2Cl)CCO1", "note": "(centres unmarked) [Compound 14]", "IC50": 123}
{"smiles": "O=c1[nH]c(-c2ccncc2)nc(C2(F)CCNCC2)c1Cl", "note": "[Compound 21]", "IC50": 1.51}
{"smiles": "CCCC1COCCN1c1nc(-c2ccncc2)[nH]c(=O)c1Cl", "note": "(centres unmarked) [Compound 95]", "IC50": 67.6}
{"smiles": "COCCC1CN(c2nc(-c3ccncc3)[nH]c(=O)c2Cl)CCO1", "note": "(centres unmarked) [Compound 99]", "IC50": 85.1}
{"smiles": "O=c1[nH]c(-c2ccncc2)nc(N2CCN[C@@H](CCO)C2)c1Cl", "note": "[Compound 175]", "IC50": 57.5}
{"smiles": "O=c1[nH]c(-c2ccncc2)nc(C2CCOCC2)c1C(F)(F)F", "note": "[Compound 406, 2-(4-pyridyl)-4-tetrahydropyran-4-yl-5-(trifluoromethyl)-1H-pyrimidin-6-one]", "IC50": 851}
{"smiles": "Cc1ncsc1C(=O)N1CCC(c2nc(-c3ccncc3)[nH]c(=O)c2Cl)CC1", "note": "[Compound 67]", "IC50": 1.55}
{"smiles": "Cn1cnc(C(=O)N2CCC(c3nc(-c4ccncc4)[nH]c(=O)c3Cl)CC2)c1", "note": "[Compound 55]", "IC50": 2.09}
{"smiles": "O=c1[nH]c(-c2ccncc2)nc(N2CCN[C@H](Cc3ccccc3)C2)c1Cl", "note": "[Compound 165]", "IC50": 126}
{"smiles": "NC(=O)[C@H]1CCCN1c1nc(-c2ccncc2)[nH]c(=O)c1Cl", "note": "[Compound 118]", "IC50": 380}
{"smiles": "O=c1[nH]c(-c2ccncc2)nc(C2CCN(S(=O)(=O)c3ccccc3)CC2)c1Cl", "note": "[Compound 37, 4-[1-(benzenesulfonyl)-4-piperidyl]-5-chloro-2-(4-pyridyl)-1H-pyrimidin-6-one]", "IC50": 30.2}
{"smiles": "CC(=O)N1CCC(c2nc(-c3ccncc3)[nH]c(=O)c2Cl)CC1", "note": "[Compound 40]", "IC50": 8.13}
{"smiles": "O=c1[nH]c(-c2ccncc2)nc(N2CC(CO)C2)c1Cl", "note": "[Compound 124]", "IC50": 263}
{"smiles": "CC1(c2nc(-c3ccnc(F)c3)[nH]c(=O)c2Cl)CCOCC1", "note": "[Compound 10]", "IC50": 3.02}
{"smiles": "COc1cccc(N2CCN(c3nc(-c4ccncc4)[nH]c(=O)c3Cl)CC2)c1", "note": "[Compound 113]", "IC50": 28.8}
{"smiles": "O=c1[nH]c(-c2ccncc2)nc(C2CNCCO2)c1Cl", "note": "(centres unmarked) [Compound 20]", "IC50": 347}
{"smiles": "CN(C)C(=O)C1CN(c2nc(-c3ccncc3)[nH]c(=O)c2Cl)CCO1", "note": "(centres unmarked) [Compound 97]", "IC50": 200}
{"smiles": "O=c1[nH]c(-c2ccncc2)nc(N2CCC(O)C2)c1Cl", "note": "(centres unmarked) [Compound 138]", "IC50": 100}
{"smiles": "CCOC1CCN(c2nc(-c3ccncc3)[nH]c(=O)c2Cl)CC1", "note": "[Compound 27]", "IC50": 21.4}
{"smiles": "O=c1[nH]c(-c2ccncc2)nc(C2CCCN2)c1Cl", "note": "(centres unmarked) [Compound 7]", "IC50": 2450}
{"smiles": "COc1ccc(S(N)(=O)=O)cc1C(=O)N1CCC(c2nc(-c3ccncc3)[nH]c(=O)c2Cl)CC1", "note": "[Compound 61]", "IC50": 6.17}
{"smiles": "O=C1CN(c2nc(-c3ccncc3)[nH]c(=O)c2Cl)CCCN1", "note": "[Compound 141]", "IC50": 145}
{"smiles": "CC(C)CCN1CCN(c2nc(-c3ccncc3)[nH]c(=O)c2Cl)CC1", "note": "[Compound 83]", "IC50": 166}
{"smiles": "O=c1[nH]c(-c2ccncc2)nc(C2CCOCC2)c1Br", "note": "[Compound 3, 5-bromo-2-(4-pyridyl)-4-tetrahydropyran-4-yl-1H-pyrimidin-6-one]", "IC50": 6.76}
{"smiles": "CC(C)(C)C(=O)N1CCC(c2nc(-c3ccncc3)[nH]c(=O)c2Cl)CC1", "note": "[Compound 44]", "IC50": 63.1}
{"smiles": "O=c1[nH]c(-c2ccncc2)nc(C2CCCCO2)c1Cl", "note": "(centres unmarked) [Compound 15]", "IC50": 832}
{"smiles": "N#Cc1cccc(C(=O)N2CCC(c3nc(-c4ccncc4)[nH]c(=O)c3Cl)CC2)c1", "note": "[Compound 48]", "IC50": 2.57}
{"smiles": "O=c1[nH]c(-c2ccnc(Cl)c2)nc(C2CCOCC2)c1Cl", "note": "[Compound 23]", "IC50": 19.1}
{"smiles": "NC(=O)C1CN(c2nc(-c3ccncc3)[nH]c(=O)c2Cl)CCO1", "note": "(centres unmarked) [Compound 96]", "IC50": 42.7}
{"smiles": "CC(C)CC1CN(c2nc(-c3ccncc3)[nH]c(=O)c2Cl)CCO1", "note": "(centres unmarked) [Compound 93]", "IC50": 407}
{"smiles": "CS(=O)(=O)Cc1ccc(C(=O)N2CCC(c3nc(-c4ccncc4)[nH]c(=O)c3Cl)CC2)cc1", "note": "[Compound 73]", "IC50": 5.13}
{"smiles": "CC(C)(C)OC(=O)N1CCC(c2nc(-c3ccnc(F)c3)[nH]c(=O)c2Cl)CC1", "note": "[Compound 25]", "IC50": 23.4}
{"smiles": "O=c1[nH]c(-c2ccncc2)nc(N2CCNC(c3cccc(O)c3)C2)c1Cl", "note": "(centres unmarked) [Compound 178]", "IC50": 4.27}
{"smiles": "O=c1[nH]c(-c2ccnc(C(F)(F)F)c2)nc(C2CCOCC2)c1Cl", "note": "[Compound 24]", "IC50": 1020}
{"smiles": "CC(C)(O)[C@@H]1CN(c2nc(-c3ccncc3)[nH]c(=O)c2Cl)CCN1", "note": "[Compound 407, 5-chloro-4-[(3S)-3-(1-hydroxy-1-methyl-ethyl)piperazin-1-yl]-2-(4-pyridyl)-1H-pyrimidin-6-one]", "IC50": 60.3}
{"smiles": "O=c1[nH]c(-c2ccncc2)nc(N2CCC3(COC3)C2)c1Cl", "note": "[Compound 126]", "IC50": 53.7}
{"smiles": "C[C@@H](NC(=O)OC(C)(C)C)C(=O)N1CCC(c2nc(-c3ccncc3)[nH]c(=O)c2Cl)CC1", "note": "[Compound 64]", "IC50": 3.98}
